# According to patent US20090149455A1, “Use of Triazolopyrimidines for Controlling Plant Diseases on Legumes” (Bayer CropScience AG, priority 2005, published 2009):
# Test: log p
# Type: physicochemical
row,Structure (SMILES),log p
1,CCC(C)Nc1c(-c2ccccc2F)c(Cl)nc2ncnn12 (stereo not drawn) [Example 4],2.73
2,CCC(C)Nc1c(-c2ccccc2)c(Cl)nc2ncnn12 (stereo not drawn) [Example 7],2.78
3,CCC(C)Nc1c(-c2ccc(Cl)cc2Cl)c(Cl)nc2ncnn12 (stereo not drawn) [Example 8],3.54
4,CCC(C)Nc1c(-c2ccccc2Cl)c(Cl)nc2ncnn12 (stereo not drawn) [Example 9],2.94
5,C=CCN(CC)c1c(-c2c(F)cc(C(F)(F)F)cc2Cl)c(Cl)nc2ncnn12 [Example 13],4.06
6,C=CCN(C)c1c(-c2ccc(F)cc2F)c(Cl)nc2ncnn12 [Example 14],2.89
7,C=CCN(CC)c1c(-c2ccc(F)cc2F)c(Cl)nc2ncnn12 [Example 15],3.19
8,CC(C)(Nc1c(-c2c(F)c(F)c(F)c(F)c2F)c(Cl)nc2ncnn12)C(F)(F)F [Example 17],3.75
9,CCN(CC)c1c(-c2ccccc2F)c(Cl)nc2ncnn12 [Example 18],2.82
10,CCNc1c(-c2c(F)cc(C(F)(F)F)cc2Cl)c(Cl)nc2ncnn12 [Example 21],3.1
11,CCN(CC)c1c(-c2c(F)c(F)c(F)c(F)c2F)c(Cl)nc2ncnn12 [Example 22],3.44
12,CCNc1c(-c2ccccc2F)c(Cl)nc2ncnn12 [Example 23],2.13
13,CCNc1c(-c2c(F)c(F)c(F)c(F)c2F)c(Cl)nc2ncnn12 [Example 25],2.72
14,CC(Nc1c(-c2c(F)cccc2Cl)c(Cl)nc2ncnn12)C(F)(F)F (stereo not drawn) [Example 30],2.85
15,C[C@H](Nc1c(-c2c(Cl)cc(C(F)(F)F)cc2Cl)c(Cl)nc2ncnn12)C(F)(F)F [Example 36],3.79
16,C[C@H](Nc1c(-c2c(Cl)cc(OC(F)(F)F)cc2Cl)c(Cl)nc2ncnn12)C(F)(F)F [Example 37],3.89
17,C[C@H](Nc1c(-c2cc(C(F)(F)F)ccc2C(F)(F)F)c(Cl)nc2ncnn12)C(F)(F)F [Example 39],3.51
18,C[C@H](Nc1c(-c2cc(C(F)(F)F)ccc2Cl)c(Cl)nc2ncnn12)C(F)(F)F [Example 40],3.4
19,C[C@H](Nc1c(-c2c(F)cc(C(F)(F)F)c(F)c2F)c(Cl)nc2ncnn12)C(F)(F)F [Example 41],3.6
20,C[C@H](Nc1c(-c2ccc(C(F)(F)F)c(F)c2F)c(Cl)nc2ncnn12)C(F)(F)F [Example 42],3.52
21,CC(Nc1c(-c2ccc(F)c(Cl)c2)c(Cl)nc2ncnn12)C(F)(F)F (stereo not drawn) [Example 43],3.18
22,C[C@H](Nc1c(-c2c(Cl)c(F)cc(C(F)(F)F)c2Cl)c(Cl)nc2ncnn12)C(F)(F)F [Example 44],3.74
23,C[C@H](Nc1c(-c2ccc(C(F)(F)F)cc2F)c(Cl)nc2ncnn12)C(F)(F)F [Example 45],3.33
24,CC(Nc1c(-c2ccc(F)cc2Cl)c(Cl)nc2ncnn12)C(F)(F)F (stereo not drawn) [Example 46],3.04
25,CC(Nc1c(-c2c(F)c(F)c(F)c(F)c2F)c(Cl)nc2ncnn12)C(F)(F)F (stereo not drawn) [Example 48],3.3
26,CC(Nc1c(-c2ccccc2F)c(Cl)nc2ncnn12)C(F)(F)F (stereo not drawn) [Example 49],2.69

row,Structure (SMILES),log p
1,C[C@H](Nc1c(-c2cc(SC(F)(F)F)ccc2Cl)c(Cl)nc2ncnn12)C(F)(F)F [Example 50],3.78
2,C[C@H](Nc1c(-c2cccc(C(F)(F)F)c2Cl)c(Cl)nc2ncnn12)C(F)(F)F [Example 51],3.36
3,C[C@H](Nc1c(-c2c(Cl)cccc2Cl)c(Cl)nc2ncnn12)C(F)(F)F [Example 53],3.02
4,C[C@H](Nc1c(-c2cccc3c2OC(F)(F)O3)c(Cl)nc2ncnn12)C(F)(F)F [Example 55],3.16
5,CC(Nc1c(-c2ccccc2Cl)c(Cl)nc2ncnn12)C(F)(F)F (stereo not drawn) [Example 57],2.88
6,C[C@H](Nc1c(-c2ccccc2Cl)c(Cl)nc2ncnn12)C(F)(F)F [Example 58],2.87
7,C[C@H](Nc1c(-c2ccc(F)cc2C(F)(F)F)c(Cl)nc2ncnn12)C(F)(F)F [Example 59],3.07
8,C[C@@H](Nc1c(-c2ccc(F)cc2Cl)c(Cl)nc2ncnn12)C(F)(F)F [Example 61],3
9,C[C@H](Nc1c(-c2cc(F)ccc2F)c(Cl)nc2ncnn12)C(F)(F)F [Example 62],2.74
10,CC(Nc1c(-c2c(Cl)cc(OC(F)(F)F)cc2Cl)c(Br)nc2ncnn12)C(F)(F)F (stereo not drawn) [Example 65],3.92
11,CC(Nc1c(-c2c(F)cccc2Cl)c(Cl)nc2ncnn12)C(C)(C)C (stereo not drawn) [Example 69],3.58
12,CNc1c(-c2c(F)c(F)c(F)c(F)c2F)c(Cl)nc2ncnn12 [Example 84],2.41
13,CN(C)c1c(-c2ccccc2F)c(Cl)nc2ncnn12 [Example 85],2.18
14,CNc1c(-c2ccccc2F)c(Cl)nc2ncnn12 [Example 86],1.86
15,CN(C)c1c(-c2c(F)cccc2F)c(Cl)nc2ncnn12 [Example 87],2.19
16,C=C(C)CNc1c(-c2ccccc2F)c(Cl)nc2ncnn12 [Example 91],2.48
17,C=C(C)CN(CC)c1c(-c2ccc(F)cc2F)c(Cl)nc2ncnn12 [Example 93],3.54
18,C=C(C)CN(CC)c1c(-c2c(F)cccc2F)c(Cl)nc2ncnn12 [Example 95],3.42
19,C=C(C)CN(C)c1c(-c2c(F)cc(C(F)(F)F)cc2Cl)c(Cl)nc2ncnn12 [Example 96],4.05
20,C=C(C)CNc1c(-c2ccc(F)cc2F)c(Cl)nc2ncnn12 [Example 97],2.6
21,C=C(C)CN(C)c1c(-c2ccc(F)cc2F)c(Cl)nc2ncnn12 [Example 98],3.21
22,C=C(C)CN(CC)c1c(-c2c(Cl)cccc2Cl)c(Cl)nc2ncnn12 [Example 99],3.92
23,C=C(C)CN(CC)c1c(-c2cc(C(F)(F)F)ccc2Cl)c(Cl)nc2ncnn12 [Example 100],4.12
24,C=C(C)CN(CC)c1c(-c2cccc3c2OC(F)(F)O3)c(Cl)nc2ncnn12 [Example 101],3.9
25,C=C(C)CN(CC)c1c(-c2cccc(C(F)(F)F)c2Cl)c(Cl)nc2ncnn12 [Example 102],4.12
26,C=C(C)CNc1c(-c2c(F)c(F)c(F)c(F)c2F)c(Cl)nc2ncnn12 [Example 104],3.09

# Next, values leading:
row,log p,Structure (SMILES)
1,2.87,CC(Nc1c(-c2c(F)cc(F)cc2F)c(Cl)nc2ncnn12)C(F)(F)F (stereo not drawn) [Example 1]
2,3.54,CC(Nc1c(-c2c(F)cc(F)cc2F)c(Cl)nc2ncnn12)C(C)(C)C (stereo not drawn) [Example 2]
3,3.2,CC(C)C(C)Nc1c(-c2c(F)cc(F)cc2F)c(Cl)nc2ncnn12 (stereo not drawn) [Example 3]
4,2.71,CCC(C)Nc1c(-c2c(F)cccc2F)c(Cl)nc2ncnn12 (stereo not drawn) [Example 5]
5,2.85,CCC(C)Nc1c(-c2ccc(F)cc2F)c(Cl)nc2ncnn12 (stereo not drawn) [Example 6]
6,4.32,CC(C)(C)CC(C)(C)Nc1c(-c2c(F)cc(F)cc2F)c(Cl)nc2ncnn12 [Example 10]
7,3.26,CCC(C)CNc1c(-c2c(F)cc(F)cc2F)c(Cl)nc2ncnn12 (stereo not drawn) [Example 11]
8,2.3,FCCCNc1c(-c2c(F)cc(F)cc2F)c(Cl)nc2ncnn12 [Example 12]
9,2.14,CCNc1c(-c2c(F)cccc2F)c(Cl)nc2ncnn12 [Example 24]
10,3.05,CCN(CC)c1c(-c2c(F)cc(F)cc2F)c(Cl)nc2ncnn12 [Example 26]
11,2.88,CC(Nc1c(-c2c(F)cc(F)cc2F)c(Cl)nc2ncnn12)C(F)(F)F (stereo not drawn) [Example 29]
12,3.55,Cc1cc(C)c(-c2c(Cl)nc3ncnn3c2NC(C)C(F)(F)F)c(C)c1 (stereo not drawn) [Example 35]
13,3.17,CSc1cc(F)cc(F)c1-c1c(Cl)nc2ncnn2c1N[C@@H](C)C(F)(F)F [Example 38]
14,2.64,CC(Nc1c(-c2c(F)cccc2F)c(Cl)nc2ncnn12)C(F)(F)F (stereo not drawn) [Example 47]
15,2.81,C[C@H](Nc1c(-c2ccc(F)cc2F)c(Cl)nc2ncnn12)C(F)(F)F [Example 52]
16,3.16,C[C@H](Nc1c(-c2c(F)cc(F)cc2C(F)(F)F)c(Cl)nc2ncnn12)C(F)(F)F [Example 54]
17,3.09,CC(Nc1c(-c2c(F)cc(C(F)(F)F)cc2F)c(Cl)nc2ncnn12)C(F)(F)F (stereo not drawn) [Example 56]
18,2.84,C[C@@H](Nc1c(-c2c(F)cc(F)cc2F)c(Cl)nc2ncnn12)C(F)(F)F [Example 60]

row,log p,Structure (SMILES)
1,2.9,CC(Nc1c(-c2c(F)cc(F)cc2F)c(Br)nc2ncnn12)C(F)(F)F (stereo not drawn) [Example 66]
2,3.53,CC(Nc1c(-c2c(F)cc(F)cc2F)c(Cl)nc2ncnn12)C(C)(C)C (stereo not drawn) [Example 67]
3,3.54,C[C@H](Nc1c(-c2c(F)cc(F)cc2F)c(Cl)nc2ncnn12)C(C)(C)C [Example 68]
4,3.58,C[C@@H](Nc1c(-c2c(F)cccc2Cl)c(Cl)nc2ncnn12)C(C)(C)C [Example 70]
5,3.63,C[C@H](Nc1c(-c2c(F)cccc2Cl)c(Cl)nc2ncnn12)C(C)(C)C [Example 71]
6,3.38,C[C@@H](Nc1c(-c2cc(F)ccc2F)c(Cl)nc2ncnn12)C(C)(C)C [Example 72]
7,3.2,CC(C)C(C)Nc1c(-c2c(F)cc(F)cc2F)c(Cl)nc2ncnn12 (stereo not drawn) [Example 73]
8,3.14,CC(C)C(C)Nc1c(-c2ccccc2)c(Cl)nc2ncnn12 (stereo not drawn) [Example 74]
9,3.17,CC(C)[C@H](C)Nc1c(-c2c(F)cc(F)cc2F)c(Cl)nc2ncnn12 [Example 77]
10,3.05,CC(C)[C@@H](C)Nc1c(-c2cc(F)ccc2F)c(Cl)nc2ncnn12 [Example 78]
11,2.7,Cc1nc2ncnn2c(N[C@H](C)C(C)C)c1-c1c(F)cccc1Cl [Example 79]
12,3.59,CC(C)CC(C)Nc1c(-c2c(F)cc(F)cc2F)c(Cl)nc2ncnn12 (stereo not drawn) [Example 80]
13,3.53,CC(C)CC(C)Nc1c(-c2ccc(F)cc2F)c(Cl)nc2ncnn12 (stereo not drawn) [Example 81]
14,1.84,CNc1c(-c2c(F)cccc2F)c(Cl)nc2ncnn12 [Example 82]
15,2.01,CNc1c(-c2c(F)cc(F)cc2F)c(Cl)nc2ncnn12 [Example 83]
16,3.6,C=C(C)CN(CC)c1c(-c2c(F)cc(F)cc2F)c(Cl)nc2ncnn12 [Example 90]
17,2.63,C=C(C)CNc1c(-c2c(F)cc(F)cc2F)c(Cl)nc2ncnn12 [Example 94]
